Assay results as given in US12116358B2, “Substituted indoles and methods of use thereof” (EPIZYME, INC., priority 2018, dated 2024).
Like-named read-outs stand apart in the source and are kept apart here.

How the values were obtained:
SETD2(1434-1711) = target: T1, SETD2(1434-1711) (Homo sapiens, UniProt Q9BYW2); assay: SETD2 (1434-1711) assay; type: biochemical; details: read-out: SETD2 (1434-1711)
T1 construct: SETD2 (1434-1711) Assay; catalogue N/A
T1 sequence (Q9BYW2 1434-1711): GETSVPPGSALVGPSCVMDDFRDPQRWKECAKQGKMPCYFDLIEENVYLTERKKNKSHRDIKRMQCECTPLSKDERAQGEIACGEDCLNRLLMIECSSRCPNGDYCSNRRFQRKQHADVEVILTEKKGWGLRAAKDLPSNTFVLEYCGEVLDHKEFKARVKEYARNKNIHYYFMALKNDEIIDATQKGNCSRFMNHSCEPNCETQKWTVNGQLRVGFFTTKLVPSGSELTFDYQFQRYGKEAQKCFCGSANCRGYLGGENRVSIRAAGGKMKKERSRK

H3K36me3 in A549 cells = assay: In-Cell Western (ICW) assay of SETD2 inhibitors (A549 assay); type: cell-based, human; details: A549 cells, read-out: SETD2 A549
Procedure, shortened: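 A549 cells seeded at 4,000/well onto compound and incubated 3 days at 37° C. Methanol-fixed cells stained overnight at 4° C with anti-H3K36me3 (1:1000), then IRDye 800CW secondary with DRAQ5 DNA counterstain. Plates read by Licor imaging at 700 and 800 channels.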

Row | SMILES | IC50 (SETD2(1434-1711)) [µM] | IC50 (H3K36me3 in A549 cells) [µM] | IC50 (H3K36me3 in A549 cells; Homo sapiens) [µM]
1 | COC(=O)N1CCN(c2cccc(NC(=O)c3cc4c(F)ccc(C)c4[nH]3)c2)CC1 [compound 121] | 0.05 | 0.3 | 
2 | Cc1ccc(F)c2cc(C(=O)Nc3cc(F)cc(N4C[C@H]5CCN(C)[C@H]5C4)c3)[nH]c12 [compound 122] | 0.01 |  | 0.3
3 | CC(=O)N1CCCC(c2cccc(NC(=O)c3cc4c(F)ccc(C)c4[nH]3)c2)C1 (centres unmarked) [compound 123] | 0.05 |  | 0.3
4 | Cc1ccc(F)c2cc(C(=O)Nc3cccc(N4CC5CCCNC5C4)c3)[nH]c12 (centres unmarked) [compound 124] | 0.007 |  | 0.3
5 | Cc1ccc(F)c2cc(C(=O)Nc3cccc(N4CCCS4(=O)=O)c3)[nH]c12 [compound 125] | 0.08 |  | 0.3
6 | Cc1ccc(F)c2cc(C(=O)Nc3cccc(N4CCC(O)CC4)c3)[nH]c12 [compound 126] | 0.05 |  | 0.3
7 | COC(=O)N1CCC2(CCN(c3cccc(NC(=O)c4cc5c(F)ccc(C)c5[nH]4)c3)CC2)C1 [compound 127] | 0.04 |  | 0.3
8 | CNC1CCN(c2cccc(NC(=O)c3cc4c(F)ccc(C)c4[nH]3)c2)C1 (centres unmarked) [compound 128] | 0.01 |  | 0.3
9 | Cc1ccc(F)c2cc(C(=O)Nc3cccc(N4CCOC(C)C4)c3)[nH]c12 (centres unmarked) [compound 129] | 0.06 |  | 0.3
10 | Cc1ccc(F)c2cc(C(=O)Nc3cccc(N4CCC(N(C)CCF)C4)c3)[nH]c12 (centres unmarked) [compound 130] | 0.04 |  | 0.3
11 | Cc1ccc(F)c2cc(C(=O)N[C@H]3CCC[C@@H](c4cncnc4)C3)[nH]c12 [compound 131] | 0.1 |  | 0.3
12 | Cc1ccc(F)c2cc(C(=O)Nc3cccc(-c4nnc(CN(C)C)s4)c3)[nH]c12 [compound 132] | 0.05 |  | 0.3
13 | COCC1CN(c2cccc(NC(=O)c3cc4c(F)ccc(C)c4[nH]3)c2)CCO1 (centres unmarked) [compound 133] | 0.1 |  | 0.3
14 | Cc1ccc(F)c2cc(C(=O)Nc3cccc(N4CC5(CN(C)C5)C4)c3)[nH]c12 [compound 135] | 0.02 |  | 0.3
15 | Cc1ccc(F)c2cc(C(=O)Nc3cccc(-c4ccc(CNS(C)(=O)=O)cc4)c3)[nH]c12 [compound 136] | 0.4 |  | 0.3
16 | Cc1ccc(F)c2cc(C(=O)Nc3cccc(-c4cccnc4)c3)[nH]c12 [compound 137] | 0.05 |  | 0.3
17 | Cc1ccc(F)c2cc(C(=O)Nc3cccc(N4CCN(C(=O)C5CCCN(C)C5)CC4)c3)[nH]c12 (centres unmarked) [compound 138] | 0.01 |  | 0.3
18 | CNC(=O)N1CCN(c2cccc(NC(=O)c3cc4c(F)ccc(C)c4[nH]3)c2)CC1 [compound 139] | 0.05 |  | 0.3
19 | Cc1ccc(F)c2cc(C(=O)Nc3cc(F)cc(C4CCN(C(=O)CN(C)C)C4)c3)[nH]c12 (centres unmarked) [compound 140] | 0.01 |  | 0.3
20 | Cc1cccnc1C(Cc1cnn(CC2CC2)c1)NC(=O)c1cc2c(F)ccc(C)c2[nH]1 (centres unmarked) [compound 141] | 0.04 |  | 0.3
21 | Cc1ccc(F)c2cc(C(=O)Nc3cccc(N4CCC5(CCCN5CC(F)F)CC4)c3)[nH]c12 [compound 142] | 0.04 |  | 0.3

Row | SMILES | IC50 (SETD2(1434-1711)) [µM] | IC50 (H3K36me3 in A549 cells) [µM] | IC50 (H3K36me3 in A549 cells; Homo sapiens) [µM]
22 | Cc1ccc(F)c2cc(C(=O)Nc3cccc(N4CCOC(C5CC5)C4)c3)[nH]c12 (centres unmarked) [compound 143] | 0.06 |  | 0.3
23 | CNC1CCN(c2cccc(NC(=O)c3cc4c(F)ccc(C)c4[nH]3)c2)CC1 [compound 144] | 0.02 |  | 0.3
24 | Cc1ccc(F)c2cc(C(=O)Nc3cc(Cl)cc(-c4cncnc4)c3)[nH]c12 [compound 145] | 0.03 |  | 0.3
25 | Cc1ccc(F)c2cc(C(=O)Nc3cccc(N4CCN(C5CCOC5)CC4)c3)[nH]c12 (centres unmarked) [compound 146] | 0.2 |  | 0.3
26 | Cc1ccc(F)c2cc(C(=O)Nc3cccc(N4CCNC(=O)C4)c3)[nH]c12 [compound 147] | 0.03 |  | 0.3
27 | Cc1ccc(F)c2cc(C(=O)Nc3cccc(N4CCC(N(C)CCO)C4)c3)[nH]c12 (centres unmarked) [compound 148] | 0.02 |  | 0.3
28 | Cc1ccc(F)c2cc(C(=O)Nc3cccc(N4CCN(C(=O)CCO)CC4)c3)[nH]c12 [compound 149] | 0.07 |  | 0.3
29 | Cc1ccc(F)c2cc(C(=O)Nc3cccc(N4CCC(CCCN)CC4)c3)[nH]c12 [compound 150] | 0.02 |  | 0.3
30 | Cc1ccc(F)c2cc(C(=O)Nc3cccc(N4CCC(N5CCN(C)CC5)CC4)c3)[nH]c12 [compound 152] | 0.01 |  | 0.3
31 | Cc1ccc(F)c2cc(C(=O)Nc3cccc(N4CCC(N5CCC(F)(F)CC5)C4)c3)[nH]c12 (centres unmarked) [compound 153] | 0.05 |  | 0.3
32 | Cc1ccc(F)c2cc(C(=O)Nc3cccc(N4C[C@@H](O)[C@H](N(C)C)C4)c3)[nH]c12 [compound 154] | 0.03 |  | 0.3
33 | COC1CN(C2CCN(c3cccc(NC(=O)c4cc5c(F)ccc(C)c5[nH]4)c3)CC2)C1 [compound 155] | 0.05 |  | 0.3
34 | COCCN(C)C1CCN(c2cccc(NC(=O)c3cc4c(F)ccc(C)c4[nH]3)c2)C1 (centres unmarked) [compound 156] | 0.03 |  | 0.3
35 | Cc1ccc(F)c2cc(C(=O)Nc3cccc(N4CCC(Nc5cccnc5)CC4)c3)[nH]c12 [compound 157] | 0.05 |  | 0.3
36 | Cc1ccc(F)c2cc(C(=O)Nc3cc(F)cc(N4CCC(C)(N5CCOCC5)C4)c3)[nH]c12 (centres unmarked) [compound 159] | 0.08 |  | 0.3
37 | Cc1ccc(F)c2cc(C(=O)Nc3cccc(C4CCN(C)C(=O)C4)c3)[nH]c12 (centres unmarked) [compound 160] | 0.09 |  | 0.3
38 | Cc1ccc(F)c2cc(C(=O)Nc3cccc(-n4cncn4)c3)[nH]c12 [compound 162] | 0.09 |  | 0.3
39 | CC(=O)N1C2CCC1CN(c1cccc(NC(=O)c3cc4c(F)ccc(C)c4[nH]3)c1)C2 [compound 163] | 0.03 | 0.3 | 
40 | Cc1ccc(F)c2cc(C(=O)Nc3cccc(-c4cnn(CCN5CCOCC5)c4)c3)[nH]c12 [compound 164] | 0.1 |  | 0.3
41 | Cc1ccc(F)c2cc(C(=O)Nc3cccc(N4CC5CN(C)CC5C4)c3)[nH]c12 (centres unmarked) [compound 165] | 0.01 |  | 0.3
42 | Cc1ccc(F)c2cc(C(=O)Nc3cccc([C@H]4CCN5C(=O)CC[C@@H]5C4)c3)[nH]c12 [compound 166] | 0.07 |  | 0.3

Row | SMILES | IC50 (SETD2(1434-1711)) [µM] | IC50 (H3K36me3 in A549 cells) [µM] | IC50 (H3K36me3 in A549 cells; Homo sapiens) [µM]
43 | Cc1ccc(F)c2cc(C(=O)Nc3cccc(N4CCOC(CN(C)C)C4)c3)[nH]c12 (centres unmarked) [compound 167] | 0.05 |  | 0.3
44 | Cc1ccc(F)c2cc(C(=O)Nc3cccc(C4CCN(C)CC4)c3)[nH]c12 [compound 168] | 0.02 |  | 0.3
45 | Cc1ccc(F)c2cc(C(=O)Nc3cccc(N4CCN(C(=O)CC#N)CC4)c3)[nH]c12 [compound 170] | 0.05 |  | 0.3
46 | Cc1ccc(F)c2cc(C(=O)Nc3cccc(-c4nccn4C)c3)[nH]c12 [compound 171] | 0.1 |  | 0.3
47 | Cc1ccc(F)c2cc(C(=O)Nc3cccc(N4CCC5C(CCN5C)C4)c3)[nH]c12 (centres unmarked) [compound 172] | 0.02 | 0.3 | 
48 | COCC1(COC)CCN(c2cccc(NC(=O)c3cc4c(F)ccc(C)c4[nH]3)c2)CC1 [compound 173] | 0.07 |  | 0.3
49 | Cc1ccc(F)c2cc(C(=O)Nc3cccc(N4CCC(N5CC(O)C5)C4)c3)[nH]c12 (centres unmarked) [compound 174] | 0.05 |  | 0.3
50 | Cc1cccnc1C(Cc1cnn(CC2CC2)c1)NC(=O)c1cc2cccc(C)c2[nH]1 (centres unmarked) [compound 175] | 0.07 |  | 0.3
51 | Cc1ccc(F)c2cc(C(=O)Nc3cccc(N4CCN(S(C)(=O)=O)CC4)c3)[nH]c12 [compound 176] | 0.1 |  | 0.3
52 | Cc1ccc(F)c2cc(C(=O)Nc3cccc(C4CNC(=O)C4)c3)[nH]c12 (centres unmarked) [compound 177] | 0.1 |  | 0.4
53 | Cc1ccc(F)c2cc(C(=O)Nc3cccc(N4CCC(N5CCC5)C4)c3)[nH]c12 (centres unmarked) [compound 178] | 0.01 |  | 0.4
54 | Cc1ccc(F)c2cc(C(=O)Nc3cccc(N4CCC5(CC4)CNC5)c3)[nH]c12 [compound 179] | 0.01 |  | 0.4
55 | Cc1ccc(F)c2cc(C(=O)Nc3cccc(N4CCC(N5CCCC5)CC4)c3)[nH]c12 [compound 180] | 0.03 |  | 0.4
56 | Cc1ccc(F)c2cc(C(=O)Nc3cccc(N4CCN5C(=O)NCC5C4)c3)[nH]c12 (centres unmarked) [compound 181] | 0.03 | 0.4 | 
57 | Cc1ccc(F)c2cc(C(=O)Nc3cccc(N4CC5CCCN(C)C5C4)c3)[nH]c12 (centres unmarked) [compound 182] | 0.02 | 0.4 | 
58 | Cc1ccc(F)c2cc(C(=O)Nc3cc(F)cc(N4CCCN(C)C(=O)C4)c3)[nH]c12 [compound 183] | 0.09 |  | 0.4
59 | Cc1ccc(F)c2cc(C(=O)Nc3cccc(N4CC5(CCNCC5)C4)c3)[nH]c12 [compound 184] | 0.01 |  | 0.4
60 | CC(=O)N1CCN(c2ccc(F)c(NC(=O)c3cc4c(F)ccc(C)c4[nH]3)c2)CC1 [compound 185] | 0.1 |  | 0.4
61 | Cc1ccc(F)c2cc(C(=O)Nc3cccc(N4CC[C@H](N(C)C)[C@H](F)C4)c3)[nH]c12 [compound 186] | 0.03 |  | 0.4
